Assay results: US6166290A, “Glutathione-S-conjugate transport in plants” (The Trustees of the University of Pennsylvania, priority 1997, dated 2000)

Experiments:
[1] = system: DTY167 cells; assay: Fluorescence microscopy of vacuolar bimane-GS accumulation, DTY167 cells; type: cell-based, Saccharomyces cerevisiae; details: 100 μM monochlorobimane, 6 hours
Method: Cells were grown in YPD medium for 24 hours at 30° C. to an OD600 nm of approximately 1.4, and 100 μl aliquots of the suspensions were transferred to 15 ml volumes of fresh YPD medium containing 100 μM syn-(ClCH2,CH3)-1,5-diazabicyclo-[3.3.0]-[…] (monochlorobimane) (Kosower et al., 1980, J Am. Chem. Soc. 102:4983-4993). After incubation for 6 hours, the cells were pelleted by centrifugation, washed twice with YPD medium lacking monochlorobimane, and viewed without fixation under an Olympus BH-2 fluorescence microscope equipped with a BP-490 UV excitation filter, AFC-0515 barrier filter, and Nomarski optics attachment.

[2] = molecular target: T1, YCF1 (vacuolar membrane vesicles purified from DTY165 cells) (Saccharomyces cerevisiae, UniProt P39109); assay: [3H]DNP-GS uptake by vacuolar membrane vesicles purified from DTY165 cells; type: biochemical; details: for MgATP-dependent, uncoupler-insensitive DNP-GS uptake plus compound / MgATP-dependent, uncoupler-insensitive DNP-GS uptake as percentage of control: 5 μM gramicidin D, GSH, GSSG 1 mM, GS-conjugates 100 μM; for MgATP-dependent, uncoupler-insensitive DNP-GS uptake as percentage of control: 10 min; for inhibition at 100 µM: 100 μM compound
T1 construct: endogenous in cells; host or cells: S. cerevisiae DTY165 (wild type YCF1), vacuolar membrane vesicles
How it was run: (§1)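 ATP-dependent [3H]DNP-GS (66.2 μM) transport measured by filtration and scintillation counting of Ficoll-purified yeast vacuolar vesicles (DTY165 wild type; DTY167 ycf1Δ), 1–60 min at 25 °C in sorbitol/Tris-Mes pH 8.0 with 3 mM ATP, 3 mM MgSO4 and gramicidin-D. Nonenergized uptake without ATP/Mg2+.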

[3] = system: vacuolar membrane vesicles purified from DTY167 cells (ycf1Δ mutant); type: biochemical, Saccharomyces cerevisiae; details: 5 μM gramicidin D, GSH, GSSG 1 mM, GS-conjugates 100 μM; for MgATP-dependent, uncoupler-insensitive DNP-GS uptake as percentage of control: 10 min
How it was run: as §1

[4] = molecular target: T1, YCF1 (vacuolar membrane vesicles purified from DTY165 cells); assay: biochemical; type: biochemical
How it was run: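 Vacuolar vesicles from wild-type (DTY165) or ycf1Δ (DTY167) yeast, washed free of DTT/EGTA into glycerol/Tris-Mes pH 8.0. MgATP-energized, uncoupler-insensitive uptake of 109Cd2+, GSH or purified radiolabeled Cd·GSn complexes measured at 25°C. Medium: 3 mM ATP/MgSO4, ATP-regenerating system, 5 μM gramicidin-D, Tris-Mes pH 8.0; washes contained 100 μM CdSO4.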

[5] = system: YCF1-specific mRNA; details: 24 hour pretreatment; CdSO4 200 μM, CDNB 150 μM
[6] = system: vacuolar membrane vesicles purified from DTY167 cells (ycf1Δ mutant); type: biochemical, Saccharomyces cerevisiae
Method: In experiments involving cadmium transport, dithiothreitol and EGTA were removed from the suspension medium to prevent the attenuation of YCF1-dependent Cd^2+ transport otherwise exerted by these compounds. Vesiculated vacuolar membranes were subjected to three cycles of 50-fold dilution into simplified suspension medium (1.1 M glycerol, 5 mM Tris-Mes, pH 8.0), centrifugation at 100,000× g for 35 minutes and resuspension in the same medium before use.
Singly radiolabeled ^109 Cd.GSn and doubly radio-labeled ^109 Cd[^3 H].GS^n complexes were prepared by sequential gel-filtrationand anion-exchange chromatography of the reaction products generated by incubating 20 mM ^109 CdSO4 (78.4 mCi/mmol) with 40 mM GSH or 40 mM [^3 H]GSH (240 mCi/mmol) in 15 ml 10 mM phosphate buffer (pH 8.0) containing 150 mM KNO3 at 45° C. for 24 hours. For gel-filtration, 2 ml aliquots of the reaction mixture were applied to a column (40×1.5 cm ID) packed with water-equilibrated Sephadex G-1 5, eluted with deionized water and ^109 Cd and/or ^3 H in the fractions was measured by liquid scintillation counting. The fractions encompassed by each of the two ^109 Cd.GSn peaks identified were pooled, lyophilized and redissolved in 4 ml of loading buffer (5 mM Tris-Mes, pH 8.0). For anion-exchange chromatography, 0.5 ml aliquots of the resuspended lyophilizates from gel-filtration chromatography were applied to a Mono-Q HR5/5 column (Pharmacia) equilibrated with the same buffer. Elution was with a linear gradient of NaCl (0.5 ml/minute; 0-500 mM) dissolved in loading buffer. The individual fractions corresponding to the major peaks of ^109 Cd obtained from the Mono-Q column (one each for the peaks resolved by gel-filtration chromatography) were pooled, lyophilized and resuspended in 4 ml deionized water after liquid scintillation counting.
MgATP-energized, uncoupler-insensitive ^109 Cd^2+ uptake by vacuolar membrane vesicles was measured at 25° C. in 200 μl reaction volumes containing 3 mM ATP, 3 mM MgSO4, 5 μM gramicidin-D, 10 mM creatine phosphate, 16 units/ml creatine kinase, 50 mM KCl, 400 mM sorbitol, 25 mM Tris-Mes (pH 8.0) and the indicated concentrations of ^109 CdSO4, GSH or ^109 Cd- and/or ^3 H-labeled purified Cd.GSn complexes as described herein except that the wash media contained 100 μM CdSO4 in addition to sorbitol (400 mM) and Tris-Mes (3 mM, pH 8.0).

[7] = molecular target: T2, AtMRP2 (Arabidopsis thaliana, UniProt Q42093); assay: AtMRP2-dependent uptake by membrane vesicles from pYES3-AtMRP2-transformed DTY168 cells; type: biochemical; details: MgATP-dependent, uncoupler-insensitive
T2 construct: S. cerevisiae DTY168 (ycf1 null) vacuolar-enriched membrane vesicles
Method: (§2) Cells were grown and vacuolar membrane-enriched vesicles were prepared as described (Kim et al., 1995, J Biol. Chem. 270:2630-2635-). […] Uptake was terminated by the addition of 1 ml ice-cold wash medium (400 mM sorbitol/3 mM Tris-Mes, pH 8.0) and vacuum filtration of the suspension through prewetted Millipore HA cellulose nitrate filters (pore size 0.45 μm). The filters were rinsed twice with wash medium, and the retained radioactivity was determined by liquid scintillation counting. Nonenergized uptake was estimated by the same procedure except that ATP was omitted from the uptake medium.
Membranes from DTY168/pYES3-AtMRP2 cells were incubated for 10 minutes in standard uptake medium containing 61.3 μM [^3 H]DNP-GS after which time 200 mM glucose and 50 units/ml hexokinase (Type F-300 from baker's yeast) were added. […] Control samples were treated identically except that no additions were made after the initial 10 minute incubation period.

[8] = system: barley vacuoles; details: cited from earlier work
[9] = molecular target: T3, AtMRP1 (Arabidopsis thaliana, UniProt Q9C8G9); assay: AtMRP1-dependent uptake by membrane vesicles from pYES3-AtMRP1-transformed DTY168 cells; type: biochemical; details: MgATP-dependent, uncoupler-insensitive
T3 construct: S. cerevisiae DTY168 (ycf1 null) vacuolar-enriched membrane vesicles
Method: S. cerevisiae strain DTY168 (MATα his6, leu2-3, -112, ura3-52 ycf1::hisG) was transformed with pYES3-AtMRP1 or empty vector lacking the AtMRP1 insert (pYES3) by the LiOAc/PEG method (Giest et al., 1991, Yeast 7:253-263) and selected for uracil prototrophy by plating on AHC medium containing tryptophan (Kim et al., 1994, supra).
For the preparation of membrane vesicles, 15 ml volumes of stationary phase cultures of the transformants were diluted into 1 L of fresh AHC medium and grown to an OD600 nm of about 1.2. Membrane vesicles were purified as described herein and in Kim et al. (1995, supra).
[…] μl reaction volumes containing 3 mM ATP, 3 mM MgSO4, 5 μM gramicidin-D, 10 mM creatine phosphate, 16 units/ml creatine kinase, 50 mM KCl, 1 mg/ml BSA, 400 mM sorbitol, 25 mM Tris-Mes ([…]).
as §2

[10] = 80 μM 109CdSO4, compound 1 mM, 5 μM gramicidin-D
[11] = 3 mM MgATP, 80 μM 109CdSO4, compound 1 mM, 5 μM gramicidin-D

T1 sequence (P39109 whole entry): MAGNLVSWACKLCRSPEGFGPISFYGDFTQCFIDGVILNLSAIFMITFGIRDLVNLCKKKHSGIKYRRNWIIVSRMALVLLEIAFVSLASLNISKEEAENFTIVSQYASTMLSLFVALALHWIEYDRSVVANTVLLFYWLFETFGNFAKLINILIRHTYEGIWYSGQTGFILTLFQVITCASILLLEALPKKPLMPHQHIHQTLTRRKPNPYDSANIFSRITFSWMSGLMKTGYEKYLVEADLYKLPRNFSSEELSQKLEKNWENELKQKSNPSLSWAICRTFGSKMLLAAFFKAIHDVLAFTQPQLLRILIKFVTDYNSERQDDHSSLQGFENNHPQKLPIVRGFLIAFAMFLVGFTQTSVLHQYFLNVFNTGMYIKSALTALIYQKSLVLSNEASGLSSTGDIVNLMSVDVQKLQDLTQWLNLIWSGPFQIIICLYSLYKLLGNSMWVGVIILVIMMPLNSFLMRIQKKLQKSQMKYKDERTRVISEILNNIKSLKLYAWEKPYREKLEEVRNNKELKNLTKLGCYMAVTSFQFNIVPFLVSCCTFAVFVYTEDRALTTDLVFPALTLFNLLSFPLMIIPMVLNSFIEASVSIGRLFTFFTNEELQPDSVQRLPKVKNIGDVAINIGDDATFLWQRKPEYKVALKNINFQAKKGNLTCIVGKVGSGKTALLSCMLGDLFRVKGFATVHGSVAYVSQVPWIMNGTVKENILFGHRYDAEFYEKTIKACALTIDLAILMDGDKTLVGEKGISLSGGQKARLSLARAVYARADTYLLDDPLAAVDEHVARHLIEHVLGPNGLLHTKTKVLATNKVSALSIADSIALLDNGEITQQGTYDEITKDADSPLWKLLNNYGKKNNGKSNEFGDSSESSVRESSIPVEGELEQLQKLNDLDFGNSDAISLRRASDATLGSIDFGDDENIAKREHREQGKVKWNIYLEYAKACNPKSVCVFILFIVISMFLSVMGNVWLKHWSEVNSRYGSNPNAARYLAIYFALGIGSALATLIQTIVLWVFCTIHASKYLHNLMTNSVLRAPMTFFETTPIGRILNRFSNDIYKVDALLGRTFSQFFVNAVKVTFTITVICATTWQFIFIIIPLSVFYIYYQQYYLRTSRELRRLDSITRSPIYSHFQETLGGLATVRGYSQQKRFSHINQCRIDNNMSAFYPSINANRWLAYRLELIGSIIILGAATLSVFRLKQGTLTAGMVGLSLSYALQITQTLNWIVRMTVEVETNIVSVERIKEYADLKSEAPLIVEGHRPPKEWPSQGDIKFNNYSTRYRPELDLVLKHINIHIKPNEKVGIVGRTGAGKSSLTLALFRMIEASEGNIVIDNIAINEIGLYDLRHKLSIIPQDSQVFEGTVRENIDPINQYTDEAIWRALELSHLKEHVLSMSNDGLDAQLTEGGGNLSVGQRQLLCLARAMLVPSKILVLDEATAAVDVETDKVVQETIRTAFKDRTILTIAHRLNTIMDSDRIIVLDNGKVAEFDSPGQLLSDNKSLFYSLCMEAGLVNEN
T3 sequence (Q9C8G9 whole entry): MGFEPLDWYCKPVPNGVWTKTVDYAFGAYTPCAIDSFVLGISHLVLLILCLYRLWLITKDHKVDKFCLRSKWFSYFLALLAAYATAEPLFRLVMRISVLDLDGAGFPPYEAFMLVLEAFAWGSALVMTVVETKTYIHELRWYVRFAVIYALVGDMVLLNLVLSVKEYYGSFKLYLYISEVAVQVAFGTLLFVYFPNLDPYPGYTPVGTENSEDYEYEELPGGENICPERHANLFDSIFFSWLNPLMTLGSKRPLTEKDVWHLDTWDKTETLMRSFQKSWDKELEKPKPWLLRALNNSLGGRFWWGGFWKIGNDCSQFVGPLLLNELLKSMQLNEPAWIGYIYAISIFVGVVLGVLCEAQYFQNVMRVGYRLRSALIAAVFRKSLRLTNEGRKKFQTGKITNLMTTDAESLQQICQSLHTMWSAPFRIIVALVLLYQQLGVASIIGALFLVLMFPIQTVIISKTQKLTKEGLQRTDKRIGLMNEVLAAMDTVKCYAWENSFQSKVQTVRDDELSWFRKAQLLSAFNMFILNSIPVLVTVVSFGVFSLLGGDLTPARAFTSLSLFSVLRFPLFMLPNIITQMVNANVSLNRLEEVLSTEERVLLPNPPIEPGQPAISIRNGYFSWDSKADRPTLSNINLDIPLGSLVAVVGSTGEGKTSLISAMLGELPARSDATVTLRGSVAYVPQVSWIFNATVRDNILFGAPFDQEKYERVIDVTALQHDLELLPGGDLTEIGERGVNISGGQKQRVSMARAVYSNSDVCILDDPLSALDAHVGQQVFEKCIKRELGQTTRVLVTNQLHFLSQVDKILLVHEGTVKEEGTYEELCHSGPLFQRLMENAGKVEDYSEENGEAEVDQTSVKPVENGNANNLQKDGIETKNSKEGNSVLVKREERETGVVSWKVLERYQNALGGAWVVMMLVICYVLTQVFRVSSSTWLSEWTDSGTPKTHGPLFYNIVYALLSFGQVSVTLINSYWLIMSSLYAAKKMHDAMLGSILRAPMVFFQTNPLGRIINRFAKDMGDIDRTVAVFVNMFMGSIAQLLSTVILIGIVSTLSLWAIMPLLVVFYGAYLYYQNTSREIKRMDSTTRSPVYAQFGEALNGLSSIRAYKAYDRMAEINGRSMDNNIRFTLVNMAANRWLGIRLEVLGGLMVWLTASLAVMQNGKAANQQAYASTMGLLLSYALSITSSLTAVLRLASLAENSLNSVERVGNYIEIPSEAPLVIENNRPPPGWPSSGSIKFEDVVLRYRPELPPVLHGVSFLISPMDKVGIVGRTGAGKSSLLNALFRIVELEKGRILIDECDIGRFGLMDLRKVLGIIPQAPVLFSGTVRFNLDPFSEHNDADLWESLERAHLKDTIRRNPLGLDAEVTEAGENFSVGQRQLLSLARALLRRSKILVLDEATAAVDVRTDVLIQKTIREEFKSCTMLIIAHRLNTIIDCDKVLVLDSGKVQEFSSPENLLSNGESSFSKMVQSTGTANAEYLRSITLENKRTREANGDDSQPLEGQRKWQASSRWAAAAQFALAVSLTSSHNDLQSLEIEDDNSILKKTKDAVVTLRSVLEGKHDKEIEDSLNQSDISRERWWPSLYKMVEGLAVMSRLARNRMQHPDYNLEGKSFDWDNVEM
T2 sequence (Q42093 whole entry): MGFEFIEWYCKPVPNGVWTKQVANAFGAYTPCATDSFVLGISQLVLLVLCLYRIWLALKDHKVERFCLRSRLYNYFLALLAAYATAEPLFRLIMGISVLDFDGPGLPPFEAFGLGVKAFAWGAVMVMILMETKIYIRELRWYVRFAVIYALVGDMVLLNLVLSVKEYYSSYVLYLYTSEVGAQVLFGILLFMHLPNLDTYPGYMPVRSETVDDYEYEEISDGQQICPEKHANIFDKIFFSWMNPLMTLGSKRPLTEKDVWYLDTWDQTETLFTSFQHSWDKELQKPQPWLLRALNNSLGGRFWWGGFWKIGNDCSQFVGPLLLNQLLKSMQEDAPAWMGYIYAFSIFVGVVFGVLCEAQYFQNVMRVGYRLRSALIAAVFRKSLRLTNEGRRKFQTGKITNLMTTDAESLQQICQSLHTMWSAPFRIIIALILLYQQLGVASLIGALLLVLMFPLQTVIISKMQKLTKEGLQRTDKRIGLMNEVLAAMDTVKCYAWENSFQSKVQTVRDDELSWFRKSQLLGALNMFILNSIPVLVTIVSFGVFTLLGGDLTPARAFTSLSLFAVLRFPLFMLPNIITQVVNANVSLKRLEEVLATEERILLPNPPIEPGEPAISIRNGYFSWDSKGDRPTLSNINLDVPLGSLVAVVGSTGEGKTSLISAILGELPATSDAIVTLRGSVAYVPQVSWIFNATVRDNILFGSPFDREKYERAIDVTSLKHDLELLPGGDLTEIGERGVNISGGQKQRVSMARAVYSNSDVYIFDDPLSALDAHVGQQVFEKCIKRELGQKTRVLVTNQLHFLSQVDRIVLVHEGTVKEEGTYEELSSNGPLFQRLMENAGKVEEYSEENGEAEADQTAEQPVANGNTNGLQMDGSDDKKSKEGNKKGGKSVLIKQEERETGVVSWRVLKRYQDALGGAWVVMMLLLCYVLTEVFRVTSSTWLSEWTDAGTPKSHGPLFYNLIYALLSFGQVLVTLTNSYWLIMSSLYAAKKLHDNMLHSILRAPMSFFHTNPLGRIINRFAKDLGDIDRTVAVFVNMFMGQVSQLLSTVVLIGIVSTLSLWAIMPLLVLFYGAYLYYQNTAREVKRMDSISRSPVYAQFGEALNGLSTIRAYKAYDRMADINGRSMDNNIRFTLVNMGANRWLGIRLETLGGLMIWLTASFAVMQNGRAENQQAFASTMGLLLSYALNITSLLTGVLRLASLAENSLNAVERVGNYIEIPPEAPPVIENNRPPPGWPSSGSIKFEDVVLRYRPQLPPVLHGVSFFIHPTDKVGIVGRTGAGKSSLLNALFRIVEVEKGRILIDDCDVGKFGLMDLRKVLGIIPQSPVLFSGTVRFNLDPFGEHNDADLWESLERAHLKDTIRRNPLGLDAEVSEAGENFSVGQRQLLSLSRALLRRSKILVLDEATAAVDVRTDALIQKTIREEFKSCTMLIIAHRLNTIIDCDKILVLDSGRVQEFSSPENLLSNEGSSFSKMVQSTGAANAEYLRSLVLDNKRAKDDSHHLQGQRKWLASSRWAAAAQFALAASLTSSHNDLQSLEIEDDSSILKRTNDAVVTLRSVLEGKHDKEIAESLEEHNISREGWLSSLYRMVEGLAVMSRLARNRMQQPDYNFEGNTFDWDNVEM

Compound | vacuolar fluorescence (bimane-GS) [1] | MgATP-dependent, uncoupler-insensitive DNP-GS uptake plus compound [2] | MgATP-dependent, uncoupler-insensitive DNP-GS uptake as percentage of control [2] | inhibition at 100 µM [2] | MgATP-dependent, uncoupler-insensitive DNP-GS uptake plus compound [3] | MgATP-dependent, uncoupler-insensitive DNP-GS uptake as percentage of control [3] | 109Cd uptake, -MgATP [4, 10] | MgATP-dependent, uncoupler-insensitive 109Cd2+ uptake rate ([4]; 80 μM Cd2+, 1 mM GSH) | 109Cd uptake, +MgATP [4, 11] | increase of 109Cd.GS2 uptake into vesicles from pretreated cells ([4]; 24 hour pretreatment, CdSO4 200 μM, CDNB 150 μM, 50 μM Cd.GS2) | increase of [3H]DNP-GS uptake into vesicles from pretreated cells ([2]; 24 hour pretreatment, CdSO4 200 μM, CDNB 150 μM, 66.2 μM DNP-GS) | increase of YCF1-specific mRNA level [5] | 109Cd uptake, -MgATP [6, 10] | MgATP-dependent, uncoupler-insensitive 109Cd2+ uptake rate ([6]; 80 μM Cd2+, 1 mM GSH) | 109Cd uptake, +MgATP [6, 11] | Vmax for AtMRP2-dependent uptake [7] | Vmax for AtMRP2-dependent uptake ([7]; listed as metolachlor-GS) | Km estimated previously [8] | Vmax for AtMRP1-dependent uptake [9] | Vmax for AtMRP1-dependent uptake ([9]; listed as metolachlor-GS)
Cc1c(C)n2c(CSC[C@H](NC(=O)CC[C@H](N)C(=O)O)C(=O)NCC(=O)O)c(C)c(=O)n2c1=O [Bimane-GS] | severely attenuated | 25.2 ± 1.1 nmol/mg/10 minutes | 52.6% | ~50% | 4.5 ± 0.4 nmol/mg/10 minutes | 69.2% | – | – | – | – | – | – | – | – | – | – | – | – | – | –
[Cd+2] [Cd^2+] | – | – | – | – | – | – | 5.8 ± 2.4 nmol/mg/10 minutes | 4.5 nmol/mg/min | 5.6 ± 1.5 nmol/mg/10 minutes | 1.4 fold | 1.6 fold | 1.9 fold | 4.3 ± 1.3 nmol/mg/10 minutes | 0.8 nmol/mg/min | 4.6 ± 2.1 nmol/mg/10 minutes | – | – | – | – | –
CCc1cccc(C)c1N(C(=O)CSC[C@H](NC(=O)CC[C@H](N)C(=O)O)C(=O)NCC(=O)O)C(C)COC (stereo partly shown) [Metolachlor-GS] | – | 27.6 ± 0.9 nmol/mg/10 minutes | 57.7% | ~50% | 4.8 ± 0.7 nmol/mg/10 minutes | 73.8% | – | – | – | – | – | – | – | – | – | 136.0 ± 28.1 nmol/mg/10 min | 136.0±28.1 nmol/mg/10 min | 40 to 60 µM | 17.5 ± 5.2 nmol/mg/10 min | 17.5±5.2 nmol/mg/10 min
